What was measured:
[1] = Dissociation constant, pKa of the compound; assay type: physicochemical
[2] = molecular target: T1, Voltage-gated inwardly rectifying potassium channel KCNH2 (Homo sapiens, UniProt Q12809); assay: Inhibition of human ERG
[3] = molecular target: C-C chemokine receptor type 5 (Homo sapiens, UniProt P51681); assay: Displacement of [125I]MIP-1beta from CCR5 receptor
[4] = molecular target: T1, Voltage-gated inwardly rectifying potassium channel KCNH2; assay: Displacement of [3H]dofetilide from human ERG
[5] = test system: Human immunodeficiency virus 1; assay: Antiviral activity against HIV1 BaL infected in peripheral blood lymphocytes assessed as inhibition of viral replication; assay type: functional; details: Human immunodeficiency virus 1, BaL
hERG (KCNH2) = hERG (KCNH2) (Homo sapiens, UniProt Q12809); assay: Inhibition of human ERG at 1 uM
[6] = test system: Human immunodeficiency virus 1; assay: Antiviral activity against CCR5-tropic HIV1 clade B infected in peripheral blood lymphocytes assessed as inhibition of viral replication; assay type: functional, organism-based; details: Human immunodeficiency virus 1, clade B
[7] = test system: Human immunodeficiency virus 1; assay: Antiviral activity against CCR5-tropic HIV1 clade A infected in peripheral blood lymphocytes assessed as inhibition of viral replication; assay type: functional, organism-based; details: Human immunodeficiency virus 1, clade A

Chain of C-C chemokine receptor type 5 (P51681 whole entry): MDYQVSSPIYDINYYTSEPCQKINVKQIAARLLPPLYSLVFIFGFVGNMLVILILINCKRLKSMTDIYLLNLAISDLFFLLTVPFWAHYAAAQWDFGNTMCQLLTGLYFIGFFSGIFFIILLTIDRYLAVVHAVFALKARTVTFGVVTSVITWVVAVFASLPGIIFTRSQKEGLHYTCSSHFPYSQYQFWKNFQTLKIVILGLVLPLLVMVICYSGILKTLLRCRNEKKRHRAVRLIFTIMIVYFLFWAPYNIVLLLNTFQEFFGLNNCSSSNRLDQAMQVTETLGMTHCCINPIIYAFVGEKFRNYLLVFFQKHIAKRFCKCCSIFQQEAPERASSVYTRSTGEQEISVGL
T1 sequence (Q12809 whole entry): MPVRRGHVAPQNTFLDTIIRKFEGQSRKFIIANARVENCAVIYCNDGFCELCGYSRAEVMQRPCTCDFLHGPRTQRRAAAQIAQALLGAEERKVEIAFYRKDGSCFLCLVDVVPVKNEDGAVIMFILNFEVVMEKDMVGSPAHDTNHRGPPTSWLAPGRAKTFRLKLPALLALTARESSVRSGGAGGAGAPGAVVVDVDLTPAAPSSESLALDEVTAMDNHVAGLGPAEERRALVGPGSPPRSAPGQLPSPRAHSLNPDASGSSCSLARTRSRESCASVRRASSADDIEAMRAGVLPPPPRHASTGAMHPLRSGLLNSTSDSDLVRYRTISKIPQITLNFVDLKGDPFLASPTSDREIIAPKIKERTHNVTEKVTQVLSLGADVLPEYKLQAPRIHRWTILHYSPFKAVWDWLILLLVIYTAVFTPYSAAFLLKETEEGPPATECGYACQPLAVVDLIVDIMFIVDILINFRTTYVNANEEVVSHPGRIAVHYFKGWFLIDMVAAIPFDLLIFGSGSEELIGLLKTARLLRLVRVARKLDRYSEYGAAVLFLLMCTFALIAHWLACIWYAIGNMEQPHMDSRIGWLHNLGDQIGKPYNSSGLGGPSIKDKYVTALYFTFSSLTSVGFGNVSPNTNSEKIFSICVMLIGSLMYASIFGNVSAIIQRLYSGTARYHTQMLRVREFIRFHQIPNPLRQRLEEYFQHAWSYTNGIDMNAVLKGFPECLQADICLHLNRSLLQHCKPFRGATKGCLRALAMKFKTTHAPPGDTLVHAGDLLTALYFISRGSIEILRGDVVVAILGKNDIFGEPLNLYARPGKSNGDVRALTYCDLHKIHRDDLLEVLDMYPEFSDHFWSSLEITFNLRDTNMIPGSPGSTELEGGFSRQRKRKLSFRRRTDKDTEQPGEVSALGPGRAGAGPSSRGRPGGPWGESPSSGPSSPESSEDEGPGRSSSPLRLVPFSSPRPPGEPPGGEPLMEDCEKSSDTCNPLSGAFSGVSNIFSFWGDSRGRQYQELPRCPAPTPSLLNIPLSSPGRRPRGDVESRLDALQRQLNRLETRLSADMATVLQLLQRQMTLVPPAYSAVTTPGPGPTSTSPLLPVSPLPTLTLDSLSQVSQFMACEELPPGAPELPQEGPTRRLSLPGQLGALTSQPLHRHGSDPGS
Chain of hERG (KCNH2) (Q12809 whole entry): as above

SMILES	pKa [1]	inhibition (INH) [2]	IC50 [3] [nM]	Ki [4] [nM]	IC90 [5] [nM]	inhibition at 1 µM (hERG (KCNH2)) [%]	IC50 [6] [nM]	IC50 [7] [nM]
Cc1nc2ccccc2n1[C@@H]1C[C@H]2COC[C@@H](C1)N2CC[C@H](NC(=O)C1CCC1)c1ccccc1	6	Active	9	42				
Cc1nc2ccccc2n1[C@@H]1C[C@@H](C)N(CC[C@H](NC(=O)C2CCC2)c2ccccc2)[C@@H](C)C1		Active	8		53			
Cc1nc2ccccc2n1C1CCN(CC[C@H](NC(=O)C2CCC2)c2ccccc2)CC1			20		73			
Cc1nc2ccccc2n1[C@@H]1C[C@H]2CC[C@@H](C1)N2CC[C@H](NC(=O)C1CCC1)c1ccccc1		Active			13			
Cc1nc2ccccc2n1[C@H]1C[C@H]2CC[C@@H](C1)N2CC[C@H](NC(=O)C1CCC1)c1ccccc1	7.8	Active			3	99	0.9	0.9
Cc1nc2ccccc2n1C1CN(CC[C@H](NC(=O)C2CCC2)c2ccccc2)C1		Active	> 1000					
Cc1nc2ccccc2n1C1[C@H]2CN(CC[C@H](NC(=O)C3CCC3)c3ccccc3)C[C@@H]12 (some centres undefined)		Active	17		> 1000			
Cc1nc2ccccc2n1C1(C)CCN(CC[C@H](NC(=O)C2CCC2)c2ccccc2)CC1		Active	1.2		140			
Cc1nc2ccccc2n1[C@@H]1C[C@H]2CSC[C@@H](C1)N2CC[C@H](NC(=O)C1CCC1)c1ccccc1		Active	21.5					
Cc1nc2ccccc2n1[C@H]1C[C@H]2COC[C@@H](C1)N2CC[C@H](NC(=O)C1CCC1)c1ccccc1		Active	39.7					

— ChEMBL document CHEMBL2203010, “The discovery of tropane-derived CCR5 receptor antagonists” (Chem Biol Drug Des, 2006)
